From ChEMBL document CHEMBL1148103, “Antifungal steroidal glycosides from the patagonian starfish anasteriasminuta: structure-activity correlations” (2002)
The source made the active and inactive calls. The calls are words filed in the database; no cut-off is given here.

Tests used:
[1] = test system: Cladosporium cucumerinum; experiment: Antifungal activity against Cladosporium cucumerinum after 2 to 3 days by bioautographic assay; format: functional, organism-based
[2] = test system: Cladosporium cucumerinum; experiment: Antifungal activity against Cladosporium cucumerinum at 10 ug/spot after 2 to 3 days by bioautographic assay; format: functional

| Compound | Activity [1] | inhibition zone (IZ) [2] |
| --- | --- | --- |
| CC(C)CC(=O)C[C@@](C)(O)[C@H]1CC[C@H]2[C@@H]3C[C@H](O[C@@H]4O[C@H](C)[C@@H](O)[C@H](O[C@@H]5OC[C@@H](O)[C@H](O)[C@H]5O[C@@H]5O[C@H](C)[C@@H](O)[C@H](O)[C@H]5O)[C@H]4O)[C@H]4C[C@@H](OS(=O)(=O)O)CC[C@]4(C)C3=CC[C@@]21C | inactive | – |
| CC(C)CC(=O)C[C@@](C)(O)[C@H]1CC[C@H]2[C@@H]3C[C@H](O[C@@H]4O[C@H](C)[C@@H](O)[C@H](O[C@@H]5OC[C@@H](O[C@@H]6O[C@H](CO)[C@H](O)[C@H](O)[C@H]6O[C@@H]6O[C@H](C)[C@H](O)[C@H](O)[C@H]6O)[C@H](O)[C@H]5O[C@@H]5O[C@H](C)[C@@H](O)[C@H](O)[C@H]5O)[C@H]4O)[C@H]4C[C@@H](OS(=O)(=O)O)CC[C@]4(C)C3=CC[C@@]21C | Dose-dependent effect | – |
| CC(C)CC(=O)C[C@@H](C)[C@H]1CC[C@H]2[C@@H]3C[C@H](O[C@@H]4O[C@H](C)[C@@H](O)[C@H](O[C@@H]5OC[C@@H](O[C@@H]6O[C@H](CO)[C@H](O)[C@H](O)[C@H]6O[C@@H]6O[C@H](C)[C@H](O[C@@H]7O[C@H](CO)[C@H](O)[C@H](O)[C@H]7O)[C@H](O)[C@H]6O)[C@H](O)[C@H]5O[C@@H]5O[C@H](C)[C@@H](O)[C@H](O)[C@H]5O)[C@H]4O)[C@H]4C[C@@H](OS(=O)(=O)O)CC[C@]4(C)C3=CC[C@]12C | Dose-dependent effect | – |
| CC(C)CC(=O)C[C@@](C)(O)[C@H]1CC[C@H]2[C@@H]3C[C@H](O[C@@H]4O[C@H](C)[C@@H](O)[C@H](O[C@@H]5OC[C@@H](O[C@@H]6O[C@H](CO)[C@H](O)[C@H](O)[C@H]6O[C@@H]6O[C@H](C)[C@H](O[C@@H]7O[C@H](CO)[C@H](O)[C@H](O)[C@H]7O)[C@H](O)[C@H]6O)[C@H](O)[C@H]5O[C@@H]5O[C@H](C)[C@@H](O)[C@H](O)[C@H]5O)[C@H]4O)[C@H]4C[C@@H](OS(=O)(=O)O)CC[C@]4(C)C3=CC[C@@]21C | Dose-dependent effect | – |
| CCCCNC(=O)n1c(NC(=O)OC)nc2ccccc21 [BENOMYL] | – | 20 mm |
| CC(=O)[C@H]1CC[C@H]2[C@@H]3C[C@H](O[C@@H]4O[C@H](C)[C@@H](O)[C@H](O[C@@H]5OC[C@@H](O[C@@H]6O[C@H](CO)[C@H](O)[C@H](O)[C@H]6O[C@@H]6O[C@H](C)[C@H](O[C@@H]7O[C@H](CO)[C@H](O)[C@H](O)[C@H]7O)[C@H](O)[C@H]6O)[C@H](O)[C@H]5O[C@@H]5O[C@H](C)[C@@H](O)[C@H](O)[C@H]5O)[C@H]4O)[C@H]4C[C@@H](OS(=O)(=O)O)CC[C@]4(C)C3=CC[C@]12C | inactive | – |
